Assay results as given in patent US8952024B2, “Herbicidal pyrimidone derivatives” (E I du Pont de Nemours and Company, priority 2009, dated 2015).
Like-named read-outs stand apart in the source and are kept apart here.

Key:
Type in all cases: in vivo
[1] = system: barnyardgrass (Echinochloa crus-galli); assay: Test A pre-/postemergence plant response; settings: Echinochloa crus-galli, 240 h, read-out: Plant response rating, Barnyardgrass; for pest or weed control at 125 g/ha: 125 g ai/ha; for pest or weed control at 500 g/ha: 500 g ai/ha, approx. ten days
Summary of the method: (§1)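 Pre: directed soil spray on seeded loam/sand blend. Post: same formulation (non-phytotoxic solvent + surfactant) on 2–10 cm plants, 1–2 leaf stage. Greenhouse ~10 d; visual injury score 0–100 vs untreated.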

[2] = system: pigweed (Amaranthus retroflexus); assay: Test A pre-/postemergence plant response; settings: Amaranthus retroflexus, 240 h, read-out: Plant response rating, Pigweed; for pest or weed control at 125 g/ha: 125 g ai/ha; for pest or weed control at 500 g/ha: 500 g ai/ha, approx. ten days
Summary of the method: as §1

[3] = system: Italian ryegrass (Lolium multiflorum); assay: Test B pre-/postemergence plant response; settings: for pest or weed control at 31 g/ha: 31 g ai/ha; for pest or weed control at 125 g/ha: 125 g ai/ha
Summary of the method: (§2)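 Compound in solvent + surfactant applied pre-em (loam/sand) or post-em (plants 2–18 cm, peat medium); greenhouse hold 13–15 days; visual 0–100 control score.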

[4] = system: Surinam grass (Brachiaria decumbens); assay: Test B pre-/postemergence plant response; settings: for pest or weed control at 31 g/ha: 31 g ai/ha; for pest or weed control at 125 g/ha: 125 g ai/ha
Summary of the method: as §2

[5] = system: blackgrass (Alopecurus myosuroides); assay: Test B pre-/postemergence plant response; settings: for pest or weed control at 31 g/ha: 31 g ai/ha; for pest or weed control at 125 g/ha: 125 g ai/ha
Summary of the method: as §2

[6] = system: downy bromegrass (Bromus tectorum); assay: Test B pre-/postemergence plant response; settings: for pest or weed control at 31 g/ha: 31 g ai/ha; for pest or weed control at 125 g/ha: 125 g ai/ha
Summary of the method: as §2

[7] = system: goosegrass (Eleusine indica); assay: Test B pre-/postemergence plant response; settings: for pest or weed control at 31 g/ha: 31 g ai/ha; for pest or weed control at 125 g/ha: 125 g ai/ha
Summary of the method: as §2

[8] = post-emergence, Postemergence, 0 to 100 scale where 0 is no effect and 100 is complete control
[9] = post-emergence, Postemergence, 0 to 100 scale, 0 = no effect, 100 = complete control
[10] = pre-emergence, Preemergence, 0 to 100 scale, 0 = no effect, 100 = complete control
[11] = pre-emergence, Preemergence, visual injury, 0 to 100 scale (0 no effect, 100 complete control)
[12] = 62 g ai/ha, postemergence, 0 is no effect, 100 is complete control, 13 to 15 days
[13] = Preemergence, 250 g ai/ha, 0 to 100 scale

Which results are given for `COCCCn1c(-c2ccccc2)ncc(C(=O)C2=C(O)CCCC2=O)c1=O` [Compound 81, 5-[(2-hydroxy-6-oxo-cyclohexen-1-yl)carbonyl]-3-(3-methoxypropyl)-2-phenyl-4(3H)-pyrimidinone]?
pest or weed control at 125 g/ha [1, 8]: 100%; pest or weed control at 500 g/ha [1, 9]: 100%; pest or weed control at 125 g/ha [1, 10]: 50%; pest or weed control at 500 g/ha [1, 11]: 90%; pest or weed control at 125 g/ha [2, 8]: 100%; pest or weed control at 500 g/ha [2, 9]: 100%; pest or weed control at 125 g/ha [2, 10]: 100%; pest or weed control at 500 g/ha [2, 11]: 100%; Ryegrass, Italian plant response rating (0 to 100 scale) [3, 12]: 5; pest or weed control at 31 g/ha ([3]; Lolium multiflorum, post-emergence, postemergence, scale 0 to 100, 0 is no effect, 100 is complete control, read-out: Plant response rating, Ryegrass, Italian): 0%; pest or weed control at 125 g/ha ([3]; Lolium multiflorum, post-emergence, Postemergence, visual rating after 13 to 15 days, scale 0 (no effect) to 100 (complete control)): 45%; pest or weed control at 250 g/ha ([3]; Lolium multiflorum, post-emergence, Postemergence, 250 g ai/ha, scale 0 to 100 (0 no effect, 100 complete control), read-out: Plant response rating, Ryegrass, Italian): 55%; pest or weed control at 31 g/ha ([3]; Lolium multiflorum, pre-emergence, Preemergence, scale 0 to 100 (0 no effect, 100 complete control), read-out: Plant response rating, Ryegrass, Italian): 0%; pest or weed control at 62 g/ha ([3]; Lolium multiflorum, pre-emergence, Preemergence, 62 g ai/ha, scale 0 to 100 (0 no effect, 100 complete control), read-out: Plant response rating, Ryegrass, Italian): 0%; pest or weed control at 125 g/ha ([3]; Lolium multiflorum, pre-emergence, Preemergence, scale 0 to 100, 0 no effect, 100 complete control, read-out: Plant response rating, Ryegrass, Italian): 0%; Ryegrass, Italian plant response rating [3, 13]: 0; Surinam Grass plant response rating (0 to 100 scale) [4, 12]: 90; Surinam Grass plant response rating [4, 13]: 100; pest or weed control at 31 g/ha ([4]; Urochloa decumbens, post-emergence, postemergence, scale 0 to 100, 0 is no effect, 100 is complete control, read-out: Plant response rating, Surinam Grass): 75%; pest or weed control at 125 g/ha ([4]; Urochloa decumbens, post-emergence, Postemergence, visual rating after 13 to 15 days, scale 0 (no effect) to 100 (complete control)): 98%; pest or weed control at 250 g/ha ([4]; Urochloa decumbens, post-emergence, Postemergence, 250 g ai/ha, scale 0 to 100 (0 no effect, 100 complete control), read-out: Plant response rating, Surinam Grass): 100%; pest or weed control at 31 g/ha ([4]; Urochloa decumbens, pre-emergence, Preemergence, scale 0 to 100 (0 no effect, 100 complete control), read-out: Plant response rating, Surinam Grass): 98%; pest or weed control at 62 g/ha ([4]; Urochloa decumbens, pre-emergence, Preemergence, 62 g ai/ha, scale 0 to 100 (0 no effect, 100 complete control), read-out: Plant response rating, Surinam Grass): 100%; pest or weed control at 125 g/ha ([4]; Urochloa decumbens, pre-emergence, Preemergence, scale 0 to 100, 0 no effect, 100 complete control, read-out: Plant response rating, Surinam Grass): 100%; Blackgrass plant response rating (0 to 100 scale) [5, 12]: 10; pest or weed control at 31 g/ha ([5]; Alopecurus myosuroides, post-emergence, 360 h, postemergence, scale 0 to 100, 0 is no effect, 100 is complete control, read-out: Plant response rating, Blackgrass): 5%; pest or weed control at 125 g/ha ([5]; Alopecurus myosuroides, post-emergence, 360 h, Postemergence, visual rating after 13 to 15 days, scale 0 (no effect) to 100 (complete control)): 30%; pest or weed control at 250 g/ha ([5]; Alopecurus myosuroides, post-emergence, 360 h, Postemergence, 250 g ai/ha, scale 0 to 100 (0 no effect, 100 complete control), read-out: Plant response rating, Blackgrass): 30%; pest or weed control at 31 g/ha ([5]; Alopecurus myosuroides, pre-emergence, 360 h, Preemergence, scale 0 to 100 (0 no effect, 100 complete control), read-out: Plant response rating, Blackgrass): 0%; pest or weed control at 62 g/ha ([5]; Alopecurus myosuroides, pre-emergence, 360 h, Preemergence, 62 g ai/ha, scale 0 to 100, 0 no effect, 100 complete control, read-out: Plant response rating, Blackgrass): 0%; pest or weed control at 125 g/ha ([5]; Alopecurus myosuroides, pre-emergence, 360 h, Preemergence, scale 0 to 100, 0 no effect, 100 complete control, read-out: Plant response rating, Blackgrass): 35%; Blackgrass plant response rating [5, 13]: 35; Bromegrass, Downy plant response rating (0 to 100 scale) [6, 12]: 5; pest or weed control at 31 g/ha ([6]; Bromus tectorum, post-emergence, postemergence, scale 0 to 100, 0 is no effect, 100 is complete control, read-out: Plant response rating, Bromegrass, Downy): 5%; pest or weed control at 125 g/ha ([6]; Bromus tectorum, post-emergence, Postemergence, visual rating after 13 to 15 days, scale 0 (no effect) to 100 (complete control)): 30%; pest or weed control at 250 g/ha ([6]; Bromus tectorum, post-emergence, Postemergence, 250 g ai/ha, scale 0 to 100 (0 no effect, 100 complete control), read-out: Plant response rating, Bromegrass, Downy): 50%; pest or weed control at 31 g/ha ([6]; Bromus tectorum, pre-emergence, Preemergence, scale 0 to 100 (0 no effect, 100 complete control), read-out: Plant response rating, Bromegrass, Downy): 0%; pest or weed control at 62 g/ha ([6]; Bromus tectorum, pre-emergence, Preemergence, 62 g ai/ha, scale 0 to 100, 0 no effect, 100 complete control, read-out: Plant response rating, Bromegrass, Downy): 0%; pest or weed control at 125 g/ha ([6]; Bromus tectorum, pre-emergence, Preemergence, scale 0 to 100, 0 no effect, 100 complete control, read-out: Plant response rating, Bromegrass, Downy): 0%; Bromegrass, Downy plant response rating [6, 13]: 0; Goosegrass plant response rating (0 to 100 scale) [7, 12]: 70; pest or weed control at 31 g/ha ([7]; Eleusine indica, post-emergence, postemergence, scale 0 to 100, 0 is no effect, 100 is complete control, read-out: Plant response rating, Goosegrass): 65%; pest or weed control at 125 g/ha ([7]; Eleusine indica, post-emergence, Postemergence, visual rating after 13 to 15 days, scale 0 (no effect) to 100 (complete control)): 70%; pest or weed control at 250 g/ha ([7]; Eleusine indica, post-emergence, Postemergence, 250 g ai/ha, scale 0 to 100 (0 no effect, 100 complete control), read-out: Plant response rating, Goosegrass): 80%; pest or weed control at 31 g/ha ([7]; Eleusine indica, pre-emergence, Preemergence, scale 0 to 100 (0 no effect, 100 complete control), read-out: Plant response rating, Goosegrass): 98%; pest or weed control at 62 g/ha ([7]; Eleusine indica, pre-emergence, Preemergence, 62 g ai/ha, scale 0 to 100, 0 no effect, 100 complete control, read-out: Plant response rating, Goosegrass): 98%; pest or weed control at 125 g/ha ([7]; Eleusine indica, pre-emergence, Preemergence, scale 0 to 100, 0 no effect, 100 complete control, read-out: Plant response rating, Goosegrass): 100%
